Data set [1] has as its system Cryptococcus neoformans. The data set can be described thus: Antifungal activity against wild type Cryptococcus neoformans H99 assessed as inhibition of fungal growth incubated for 24 to 72 hrs by optical density based analysis. The format is functional. The following applies: time 24-72 hrs.
The test system of data set [2] is Cryptococcus neoformans. The data set can be described thus: Fungicidal activity against wild type Cryptococcus neoformans H99 assessed as minimum concentration required to kill fungus measured after 12 hrs by time-kill assay. The format is functional.
The nature of data set [3]: Cytotoxicity against human A549 cells assessed as cell killing measured after 24 to 48 hrs by MTT assay. The format is toxicity, cell-based. The following applies: time 24-48 hrs, read-out: LD50 (the source's name).
Data set [4] in a line: Selectivity index, ratio of LD50 for human A549 cells to MIC80 for Cryptococcus neoformans H99. The note with it: read-out: Selectivity Index. The format is toxicity.
The test system of data set [5] is Cryptococcus neoformans. The data set can be described thus: Fungistatic activity against wild type Cryptococcus neoformans H99 assessed as inhibition of fungal growth incubated for 12 to 48 hrs by time-kill assay. The format is functional, organism-based. The note with it: time 12-48 hrs.
The subject of data set [6] is Cryptococcus neoformans. The experiment in a line: Fungicidal activity against wild type Cryptococcus neoformans H99 assessed as minimum concentration required to kill fungus measured after 48 hrs by time-kill assay. The format is functional.
The subject of data set [7] is Cryptococcus neoformans. The data set can be described thus: Fungicidal activity against wild type Cryptococcus neoformans H99 assessed as minimum concentration required to kill fungus measured after 24 hrs by time-kill assay. The format is functional.
The subject of another data set is Aspergillus fumigatus. The experiment in a line: Antifungal activity against Aspergillus fumigatus assessed as inhibition of fungal growth incubated for 24 to 72 hrs by optical density based analysis. The format is functional. The note with it: time 24-72 hrs.
The next data set has as its system Candida albicans. The data set can be described thus: Antifungal activity against Candida albicans assessed as inhibition of fungal growth incubated for 24 to 72 hrs by optical density based analysis. The format is functional. The following applies: time 24-72 hrs.

Each structure is given as a SMILES string. In brackets after ≈: the same amount, converted by molar mass. Activity calls are given as the source filed them. The calls are words filed in the database; no cut-off is given here. Bounds are passed on as bounds.

With `O=C(N/N=C/c1cc(Br)ccc1O)c1cc2ccccc2cn1`, the MIC80 (as a rule, the lowest concentration that inhibits either 80% of growth or 80% of the strains tested, depending on the study) in the data set with Cryptococcus neoformans [1] is over 16 µg/mL. As to `O=C(N/N=C/c1ccc(Br)cc1O)c1ccco1`, in the data set on Cryptococcus neoformans [1], the MIC80 was found to be 2 µg/mL (≈ 6.47 µM). Same read-out and setting: for `O=C(N/N=C/c1cc(Br)ccc1O)c1ccc(C(F)(F)F)o1` the value was 2 µg/mL (≈ 5.3 µM).

Turning to `O=C(N/N=C/c1cc(Br)cc(Br)c1O)c1csc(Br)c1`, the MIC80 with Cryptococcus neoformans [1] amounted to 0.12 µg/mL (≈ 0.248 µM). Besides, the MFC100 with Cryptococcus neoformans [2] worked out at 0.25 µg/mL (≈ 0.518 µM). Besides, the CC50 in [3] was found to be 16 µg/mL (≈ 33.1 µM). Further, the selectivity ratio in data set [4] amounted to 133. Take `Cc1ccc2c(C)c(C(=O)N/N=C/c3cc(Br)ccc3O)oc2c1`: the MIC80 in the data set with Cryptococcus neoformans [1] was over 16 µg/mL.

With `O=C(N/N=C/c1c(O)ccc2ccccc12)c1cc(Br)c(Br)s1`, in the data set on Cryptococcus neoformans [1], the MIC80 turned out to be 16 µg/mL (≈ 35.2 µM). The same measure, in the same setting: for `O=C(N/N=C/c1cc(Br)ccc1O)c1cc(Br)c[nH]1` the value was over 16 µg/mL. `O=C(N/N=C/c1ccc(Br)cc1O)c1cc(Br)c(Br)o1`: the MIC80 with Cryptococcus neoformans [1] turned out to be 0.06 µg/mL (≈ 0.129 µM). Also, the outcome in the data set on Cryptococcus neoformans [5] was Active. The CC50 in data set [3] came out at 16 µg/mL (≈ 34.3 µM). Besides, the selectivity ratio in [4] worked out at 267. `O=C(N/N=C/c1cc(Br)ccc1O)c1cc(Br)c(Br)o1`: the MIC80 in the data set on Cryptococcus neoformans [1] stood at 0.25 µg/mL (≈ 0.535 µM). Further, in the data set with Cryptococcus neoformans [6], the MFC100 turned out to be 0.5 µg/mL (≈ 1.07 µM). In addition, in data set [3], the CC50 was 32 µg/mL (≈ 68.5 µM). With `O=C(N/N=C/c1cc(Br)cc(Br)c1O)c1cc2ccccc2cn1`, the MIC80 with Cryptococcus neoformans [1] is over 16 µg/mL. On the same count and under the same terms, for `O=C(N/N=C/c1ccc(Br)cc1O)c1cccs1` the value was 4 µg/mL (≈ 12.3 µM). On the same count and under the same terms, for `O=C(N/N=C/c1cc(Br)cc(Br)c1O)c1csc2ccccc12` the value was over 16 µg/mL. Regarding `O=C(N/N=C/c1ccc(Br)cc1O)c1cncc(Br)c1`, the MIC80 in the data set on Cryptococcus neoformans [1] was found to be 1 µg/mL (≈ 2.51 µM). The outcome in the data set on Cryptococcus neoformans [5] was Active. Besides, the CC50 in data set [3] was over 32 µg/mL. The selectivity ratio in data set [4] is 64. On to `O=C(N/N=C/c1cc(Br)ccc1O)c1cc2cc(Br)ccc2cn1`, for which the MIC80 in the data set on Cryptococcus neoformans [1] is over 16 µg/mL. Consider `O=C(N/N=C/c1ccc(Br)cc1O)c1cc(Br)c[nH]1`, for which, in the data set with Cryptococcus neoformans [1], the MIC80 stood at 8 µg/mL (≈ 20.7 µM). `O=C(N/N=C/c1cc(Br)cc(Br)c1O)c1cc[nH]c1`: the MIC80 with Cryptococcus neoformans [1] amounted to 2 µg/mL (≈ 5.17 µM). For `O=C(N/N=C/c1ccc(Br)cc1O)c1csc(Br)c1`, the MIC80 in the data set with Cryptococcus neoformans [1] was determined as 0.25 µg/mL (≈ 0.619 µM). Also, the MFC100 with Cryptococcus neoformans [7] was 0.5 µg/mL (≈ 1.24 µM). The CC50 in data set [3] was over 32 µg/mL. For the same compound, in [4], the selectivity ratio was over 128.

`O=C(N/N=C/c1cc(Br)cc(Br)c1O)c1ccc(C(F)(F)F)o1`: the MIC80 with Cryptococcus neoformans [1] came out at 2 µg/mL (≈ 4.39 µM). For the compound `C[C@@H](c1ncncc1F)[C@](O)(Cn1cncn1)c1ccc(F)cc1F` [VORICONAZOLE], in the data set with Aspergillus fumigatus, the MIC80 came to 0.125 µg/mL (≈ 0.358 µM). As for `O=C(N/N=C/c1ccc(Br)cc1O)c1cc[nH]n1`, the MIC80 in the data set on Cryptococcus neoformans [1] came out at 2 µg/mL (≈ 6.47 µM). Turning to `O=C(N/N=C/c1c(O)ccc2ccccc12)c1cc[nH]c1`, the MIC80 in the data set on Cryptococcus neoformans [1] is over 16 µg/mL. Same read-out and setting: for `O=C(N/N=C/c1cc(Br)cc(Br)c1O)c1cc2cc(Br)ccc2cn1` the value was over 16 µg/mL.

Take `O=C(N/N=C/c1cc(Br)ccc1O)c1cc(Br)co1`: in the data set on Cryptococcus neoformans [1], the MIC80 turned out to be 0.25 µg/mL (≈ 0.644 µM). In addition, the result in the data set on Cryptococcus neoformans [5] was Active. Moreover, the CC50 in [3] came to 16 µg/mL (≈ 41.2 µM). The selectivity ratio in data set [4] worked out at 64. As for `O=C(N/N=C/c1c(O)ccc2ccccc12)c1csc(Br)c1`, the MIC80 in the data set with Cryptococcus neoformans [1] is 0.25 µg/mL (≈ 0.666 µM). In addition, the MFC100 in the data set on Cryptococcus neoformans [6] was 0.25 µg/mL (≈ 0.666 µM). The CC50 in data set [3] was over 32 µg/mL. Further, in data set [4], the selectivity ratio was over 128.

On to `O=C(N/N=C/c1cc(Br)cc(Br)c1O)c1cc[nH]n1`, for which the MIC80 in the data set with Cryptococcus neoformans [1] was determined as 4 µg/mL (≈ 10.3 µM).

Turning to `O=C(N/N=C/c1cc(Br)ccc1O)c1cc[nH]c1`, the MIC80 in the data set with Cryptococcus neoformans [1] was determined as 4 µg/mL (≈ 13 µM). `O=C(N/N=C/c1ccc(Br)cc1O)c1ncc(Br)cn1`: the MIC80 in the data set with Cryptococcus neoformans [1] was over 16 µg/mL. `O=C(N/N=C/c1c(O)ccc2ccccc12)c1cc(Br)c(Br)o1`: in the data set with Cryptococcus neoformans [1], the MIC80 came out at 0.12 µg/mL (≈ 0.274 µM). Further, in the data set with Cryptococcus neoformans [5], the result was Active. For the same compound, in data set [3], the CC50 stood at 32 µg/mL (≈ 73 µM). Moreover, in data set [4], the selectivity ratio was 267. Turning to `O=C(N/N=C/c1cc(Br)ccc1O)c1nc2cc(Br)ccc2[nH]1`, the MIC80 in the data set with Cryptococcus neoformans [1] was over 16 µg/mL. The same measure, in the same setting: for `O=C(N/N=C/c1cc(Br)cc(Br)c1O)c1cc2cc(Br)ccc2o1` the value was over 16 µg/mL. Take `OC(Cn1cncn1)(Cn1cncn1)c1ccc(F)cc1F` [FLUCONAZOLE]: the MIC80 with Cryptococcus neoformans [1] is 2 µg/mL (≈ 6.53 µM); with Candida albicans, 1 µg/mL (≈ 3.27 µM). On to `O=C(N/N=C/c1c(O)ccc2ccccc12)c1ncc(Br)cn1`, for which the MIC80 with Cryptococcus neoformans [1] was determined as 2 µg/mL (≈ 5.39 µM). For the compound `O=C(N/N=C/c1cc(Br)cc(Br)c1O)c1cccs1`, the MIC80 with Cryptococcus neoformans [1] stood at 4 µg/mL (≈ 9.9 µM).

(Values after ChEMBL document CHEMBL5523691, “SAR study of N'-(Salicylidene)heteroarenecarbohydrazides as promising antifungal agents” (Bioorg Med Chem, 2024).)
